The values that follow come from PMC7070443, “New Hybrid Pyrazole and Imidazopyrazole Antinflammatory Agents Able to Reduce ROS Production in Different Biological Targets” (Molecules, 2020).

Data set [1] concerns human platelets. Description: Platelet aggregation inhibition (Born's method, thrombin-stimulated washed platelets). Type of data set: cell-based. The settings on record: 0.1 U/mL thrombin, mean +/- SD, at least six experiments in duplicate. How it is done: (§1) Freshly drawn venous blood from healthy volunteers of the “Centro Trasfusionale, Ospedale San Martino” in Genoa was collected into 130 mM aqueous trisodium citrate anticoagulant solution (9:1). The donors claimed to have not taken drugs known to interfere with platelet function during two weeks prior to blood collection and gave their informed consent. Washed platelets were prepared centrifuging whole blood at 100× g for 20 min. The obtained platelet-rich plasma was then centrifuged at 1100× g for 15 min. Pellet was washed once with pH 5.2 ACD solution (75 mM trisodium citrate, 42 mM citric acid and 136 mM glucose), centrifuged at 1100× g for 15 min and then re-suspended in pH 7.4 Hepes buffer (145 mM NaCl, 5 mM KCl, 1 mM MgSO4, 10 mM glucose, 10 mM HEPES).
Platelet aggregation was performed in a Bio-Data Aggregometer (Bio-Data Corporation, Horsham, PA, USA) according to Born’s method and quantified by the light transmission reached within 6 min at 37 °C. Briefly, washed platelets (3.0 × 10^8/mL) were pre-incubated for 3 min at 37 °C with saline, compound 4 or 5 before the addition of 0.1 U/mL thrombin. The IC50 values were calculated as above detailed.

Data set [2] concerns human platelets. The data set is described as follows: ROS production inhibition in thrombin-stimulated washed platelets (DCFH-DA, flow cytometry). The settings on record: for IC50: washed human platelets, 0.1 U/mL thrombin, DCFH-DA, mean +/- SD, at least six experiments in duplicate; for activity towards ROS production in platelets (in words): human platelets, thrombin stimulated. Type of data set: cell-based. The method, then:
as §1
ROS production was quantified as previously reported by DCFH-DA, a ROS-sensitive probe that yields upon oxidation the fluorescent adduct DCF that is trapped inside the cells. Briefly, washed platelets (1.0 × 10^8/mL), pre-incubated with saline, compounds 4 or 5, for 15 min at 37 °C, were stimulated by 0.1 U/mL thrombin. Incubation was stopped by cooling samples in ice bath and then samples were immediately analyzed in a Merck Millipore Bioscience Guava easyCyte flow cytometer (Merk Millipore, Burlington, MA, USA). The reported IC50 value is the molar concentration of the compound able to obtain 50% inhibition of the […] induced by the agonist and is calculated by the percentage of inhibition that is the inhibition of the […] measured in the presence of the agent compared with that measured in a control sample containing saline, carried out under the same conditions.
(In general: Flow cytometry measures light scatter and fluorescence of single cells or particles in a stream.)

Several values for one entry are separate records, joined by “and”; a condition that tells them apart may be missing. Identical values can stand only once.

As usually defined, the IC50 is the midpoint of a concentration-inhibition curve. The low end stands for inhibition by little substance, the high end for a need for much substance. For orientation: melting point means the temperature, or range, at which the solid turns liquid. Regarding `COc1cc(/C=N/NC(=O)c2cnn(CC(O)c3ccccc3)c2N)ccc1OC(F)F` (stereo not drawn) [4a, (E)-5-Amino-N′-(4-(difluoromethoxy)-3-methoxybenzylidene)-1-(2-hydroxy-2-phenylethyl)-1H-pyrazole-4-carbohydrazide], the melting point was 119 to 121 °C. This compound displayed a 50% inhibitory concentration (IC50) in data set [1] (Platelet) of 7.6 ± 0.5 µM. In data set [2] (Homo sapiens, Platelet), this compound displayed an IC50 of around 10 µM. The 50% inhibitory concentration (IC50) in data set [2] was determined as 10.1 ± 2.1 µM.

`COc1cccc(/C=N/NC(=O)c2cnn(CC(O)c3ccccc3)c2N)c1OC1CCCC1` (stereo not drawn) [4b, (E)-5-Amino-N′-(2-(cyclopentyloxy)-3-methoxybenzylidene)-1-(2-hydroxy-2-phenylethyl)-1H-pyrazole-4-carbohydrazide]: the melting point lay within 180 to 181 °C. The same compound yielded an IC50 in data set [1] (Platelet) of 64 ± 2.5 µM. The IC50 in data set [2] (Homo sapiens, Platelet) is 20.5 ± 2.5 µM.

`CCC(C)Oc1cc(/C=N/NC(=O)c2cnn(CC(O)c3ccccc3)c2N)ccc1OC` (stereo not drawn) [4c, (E)-5-Amino-N′-(3-(sec-butoxy)-4-methoxybenzylidene)-1-(2-hydroxy-2-phenylethyl)-1H-pyrazole-4-carbohydrazide] had a melting point of 190 to 193 °C. For the same compound, the concentration for half-maximal inhibition (IC50) in data set [1] (Platelet) amounted to 57.1 ± 1.6 µM. In data set [2] (Homo sapiens, Platelet), this compound yielded a 50% inhibitory concentration (IC50) of 16.7 ± 1.1 µM.

`Nc1c(C(=O)N/N=C/c2ccc(OC(F)F)c(OC3CCCC3)c2)cnn1CC(O)c1ccccc1` (stereo not drawn) [4e, (E)-5-Amino-N′-(3-(cyclopentyloxy)-4-(difluoromethoxy)benzylidene)-1-(2-hydroxy-2-phenylethyl)-1H-pyrazole-4-carbohydrazide] displayed a melting point of 178 to 180 °C. Also, the IC50 in data set [1] (Platelet) is 29.4 ± 4.4 µM. For the same compound, in data set [2] (Homo sapiens, Platelet), the IC50 was found to be 32.8 ± 2.8 µM.

`Nc1c(C(=O)N/N=C/c2ccc(OC(F)F)c(Oc3ccccc3)c2)cnn1CC(O)c1ccccc1` (stereo not drawn) [4f, (E)-5-Amino-N′-(4-(difluoromethoxy)-3-phenoxybenzylidene)-1-(2-hydroxy-2-phenylethyl)-1H-pyrazole-4-carbohydrazide] came in with a melting point of 184 to 186 °C. In addition, the 50% inhibitory concentration (IC50) in data set [1] (Platelet) amounted to 9.8 ± 1.7 µM. The half-maximal inhibitory concentration (IC50) in data set [2] (Homo sapiens, Platelet) was around 10 µM. Moreover, in data set [2], it took 8.6 ± 2.2 µM to reach half-maximal inhibition (IC50).

In turn, `Nc1c(C(=O)N/N=C/c2ccc(OC(F)F)c(OCc3ccccc3)c2)cnn1CC(O)c1ccccc1` (stereo not drawn) [4g, (E)-5-Amino-N′-(3-(benzyloxy)-4-(difluoromethoxy)benzylidene)-1-(2-hydroxy-2-phenylethyl)-1H-pyrazole-4-carbohydrazide] displayed a melting point of 144 to 146 °C. Also, 11 ± 1.2 µM corresponded to half-maximal inhibition in data set [1] (Platelet) (IC50). The concentration for half-maximal inhibition (IC50) in data set [2] (Homo sapiens, Platelet) is around 10 µM. Also, the IC50 in data set [2] came out at 9.5 ± 2.6 µM.

As for `COc1cc(/C=N/NC(=O)c2cnn(CC(O)c3ccccc3)c2N)cc(OC)c1OC` (stereo not drawn) [4h, (E)-5-Amino-1-(2-hydroxy-2-phenylethyl)-N′-(3,4,5-trimethoxybenzylidene)-1H-pyrazole-4-carbohydrazide], the concentration for half-maximal inhibition (IC50) in data set [1] (Platelet) was above 200 µM; in data set [2] (Homo sapiens, Platelet), above 200 µM. Moreover, in data set [2], the “activity towards ROS production in platelets (in words)” value (from here on “activity towards ROS production”) is “inactive”.

Compound `COc1cccc(/C=N/NC(=O)c2cnn(CC(O)c3ccccc3)c2N)c1Oc1ccccc1` (stereo not drawn) [4i, (E)-5-Amino-1-(2-hydroxy-2-phenylethyl)-N′-(3-methoxy-2-phenoxybenzylidene)-1H-pyrazole-4-carbohydrazide] came in with a melting point of 207 to 209 °C. This compound showed a half-maximal inhibitory concentration (IC50) in data set [1] (Platelet) above 200 µM. Further, the IC50 in data set [2] (Homo sapiens, Platelet) is above 200 µM. In addition, in data set [2], the “activity towards ROS production” value was “completely inactive”.

Take `COc1cccc(/C=N/NC(=O)c2cnn(CC(O)c3ccccc3)c2N)c1OCc1ccccc1` (stereo not drawn) [4j, (E)-5-Amino-N′-(2-(benzyloxy)-3-methoxybenzylidene)-1-(2-hydroxy-2-phenylethyl)-1H-pyrazole-4-carbohydrazide]: the melting point was in the range of 198 to 200 °C. Also, the IC50 in data set [1] (Platelet) is above 200 µM. The same compound returned an IC50 in data set [2] (Homo sapiens, Platelet) above 200 µM. The “activity towards ROS production” value in data set [2] was “completely inactive”.

Regarding `COc1ccc(/C=N/NC(=O)c2cnn3c2NC(c2ccccc2)C3)cc1OC` (stereo not drawn) [5a, (E)-N′-(3,4-Dimethoxybenzylidene)-2-phenyl-2,3-dihydro-1H-imidazo[1,2-b]pyrazole-7-carbohydrazide], the melting point fell in the range of 206 to 207 °C. The compound further yielded an IC50 in data set [1] (Platelet) of 31.5 ± 5.2 µM. In addition, the IC50 in data set [2] (Homo sapiens, Platelet) was found to be 37.2 ± 2.5 µM.

For the compound `COc1cccc(/C=N/NC(=O)c2cnn3c2NC(c2ccccc2)C3)c1OC1CCCC1` (stereo not drawn) [5b, (E)-N′-(2-(Cyclopentyloxy)-3-methoxybenzylidene)-2-phenyl-2,3-dihydro-1H-imidazo[1,2-b]pyrazole-7-carbohydrazide], the IC50 in data set [1] (Platelet) worked out at 59.1 ± 5.5 µM; in data set [2] (Homo sapiens, Platelet), 66.7 ± 5.7 µM.

Compound `CCC(C)Oc1cc(/C=N/NC(=O)c2cnn3c2NC(c2ccccc2)C3)ccc1OC` (stereo not drawn) [5c, (E)-N′-(3-(sec-Butoxy)-4-methoxybenzylidene)-2-phenyl-2,3-dihydro-1H-imidazo[1,2-b]pyrazole-7-carbohydrazide] had a melting point of 130 to 131 °C. For the same compound, half-maximal inhibition in data set [1] (Platelet) (IC50) was put at 70.9 ± 4 µM. This compound also displayed a half-maximal inhibitory concentration (IC50) in data set [2] (Homo sapiens, Platelet) of 71.4 ± 6 µM.

Consider `O=C(N/N=C/c1ccc(OC(F)F)c(OC2CCCC2)c1)c1cnn2c1NC(c1ccccc1)C2` (stereo not drawn) [5e, (E)-N′-(3-(cyclopentyloxy)-4-(difluoromethoxy)benzylidene)-2-phenyl-2,3-dihydro-1H-imidazo[1,2-b]-pyrazole-7-carbohydrazide], for which the 50% inhibitory concentration (IC50) in data set [1] (Platelet) was 70.5 ± 8 µM; in data set [2] (Homo sapiens, Platelet), 78.8 ± 5.6 µM.

In turn, `COc1ccc(/C=N/NC(=O)c2cnn3c2NC(c2ccccc2)C3)cc1OC1CCCCC1` (stereo not drawn) [5f, (E)-N′-(3-(Cyclohexyloxy)-4-(methoxy)benzylidene)-2-phenyl-2,3-dihydro-1H-imidazo[1,2-b]pyrazole-7-carbohydrazide] came in with a melting point of 119 to 120 °C. This compound also displayed an IC50 in data set [1] (Platelet) of 61.6 ± 6.5 µM. Besides, the IC50 in data set [2] (Homo sapiens, Platelet) was 59.9 ± 5.7 µM.

For `O=C(N/N=C/c1ccc2c(c1)OCO2)c1cnn2c1NC(c1ccccc1)C2` (stereo not drawn) [5g, (E)-N′-(benzo[d][1,3]dioxol-5-ylmethylene)-2-phenyl-2,3-dihydro-1H-imidazo[1,2-b]pyrazole-7-carbohydrazide], the IC50 in data set [1] (Platelet) came to 67 ± 6.6 µM; in data set [2] (Homo sapiens, Platelet), 77.9 ± 7.1 µM.

For `COc1cc(/C=N/NC(=O)c2cnn3c2NC(c2ccccc2)C3)cc(OC)c1OC` (stereo not drawn) [5h, (E)-2-Phenyl-N′-(3,4,5-trimethoxybenzylidene)-2,3-dihydro-1H-imidazo[1,2-b]pyrazole-7-carbohydrazide], the 50% inhibitory concentration (IC50) was above 200 µM in data set [1] (Platelet) and above 200 µM in data set [2] (Homo sapiens, Platelet). The “activity towards ROS production” value in data set [2] was “inactive”.

For `COc1cccc(/C=N/NC(=O)c2cnn3c2NC(c2ccccc2)C3)c1Oc1ccccc1` (stereo not drawn) [5i, (E)-N′-(2-(Phenoxy)-3-(methoxy)benzylidene)-2-phenyl-2,3-dihydro-1H-imidazo[1,2-b]pyrazole-7-carbo-hydrazide], in data set [1], the IC50 was above 200 µM. Further, in data set [2], the “activity towards ROS production” value was “completely inactive” and the IC50 was above 200 µM.

Turning to `COc1cccc(/C=N/NC(=O)c2cnn3c2NC(c2ccccc2)C3)c1OCc1ccccc1` (stereo not drawn) [5j, (E)-N′-(2-(Benzyloxy)-3-(methoxy)benzylidene)-2-phenyl-2,3-dihydro-1H-imidazo[1,2-b]pyrazole-7-carbohydrazide], the melting point is 200 to 202 °C. This compound also came in with an IC50 in data set [1] (Platelet) above 200 µM. Further, the IC50 in data set [2] (Homo sapiens, Platelet) is above 200 µM. For the same compound, in data set [2], the “activity towards ROS production” value is “completely inactive”.

In turn, `COc1ccc(/C=N/NC(=O)c2cnn3c2N(C(C)=O)C(c2ccccc2)C3)cc1OC1CCCC1` (stereo not drawn) [5k, (E)-1-acetyl-N′-(3-(cyclopentyloxy)-4-methoxybenzylidene)-2-phenyl-2,3-dihydro-1H-imidazo[1,2-b]pyrazole-7-carbohydrazide] gave a melting point of 140 to 141 °C. In addition, in data set [1] (Platelet), the IC50 was above 200 µM. For the same compound, the half-maximal inhibitory concentration (IC50) in data set [2] (Homo sapiens, Platelet) is above 200 µM. For the same compound, the “activity towards ROS production” value in data set [2] is “completely inactive”.

As to “(E)-5-Amino-N′-(3-(cyclopentyloxy)-4-methoxybenzylidene)-1-(2-hydroxy-2-phenylethyl)-1H-pyrazole-4-carbohydrazide [4k]”, the 50% inhibitory concentration (IC50) in data set [1] was 86.1 ± 7.8 µM; in data set [2] it was 90 µM and 92.7 µM.
